Assay results published in ChEMBL document CHEMBL3994622, “Design and synthesis of new RAF kinase-inhibiting antiproliferative quinoline derivatives. Part 2: Diarylurea derivatives” (Eur J Med Chem, 2017).

Tests used:
Type in all cases: functional
SF-539 = test: Growth inhibition of human SF539 cells incubated for 48 hrs by sulforhodamine B assay; conditions: SF-539, 48 h
HCT-15 = test: Growth inhibition of human HCT15 cells incubated for 48 hrs by sulforhodamine B assay; conditions: HCT-15, 48 h
OVCAR-4 = test: Growth inhibition of human OVCAR4 cells incubated for 48 hrs by sulforhodamine B assay; conditions: OVCAR-4, 48 h
SK-MEL-2 = test: Growth inhibition of human SK-MEL-2 cells incubated for 48 hrs by sulforhodamine B assay; conditions: SK-MEL-2, 48 h
A498 = test: Growth inhibition of human A498 cells incubated for 48 hrs by sulforhodamine B assay; conditions: A498, 48 h
SNB-19 = test: Growth inhibition of human SNB19 cells incubated for 48 hrs by sulforhodamine B assay; conditions: SNB-19, 48 h
CAKI-1 = test: Growth inhibition of human Caki1 cells incubated for 48 hrs by sulforhodamine B assay; conditions: CAKI-1, 48 h
786-0 = test: Growth inhibition of human 786-0 cells incubated for 48 hrs by sulforhodamine B assay; conditions: 786-0, 48 h
SK-MEL-28 = test: Growth inhibition of human SK-MEL-28 cells incubated for 48 hrs by sulforhodamine B assay; conditions: SK-MEL-28, 48 h
SN12C = test: Growth inhibition of human SN12C cells incubated for 48 hrs by sulforhodamine B assay
Malme-3M = test: Growth inhibition of human MALME-3M cells incubated for 48 hrs by sulforhodamine B assay
T47D = test: Growth inhibition of human T47D cells incubated for 48 hrs by sulforhodamine B assay
MDA-MB-435 = test: Growth inhibition of human MDA-MB-435 cells incubated for 48 hrs by sulforhodamine B assay; conditions: MDA-MB-435, 48 h
OVCAR-8 = test: Growth inhibition of human OVCAR8 cells incubated for 48 hrs by sulforhodamine B assay; conditions: OVCAR-8, 48 h
NCI-H23 = test: Growth inhibition of human NCI-H23 cells incubated for 48 hrs by sulforhodamine B assay; conditions: NCI-H23, 48 h
LOX IMVI = test: Growth inhibition of human LOXIMVI cells incubated for 48 hrs by sulforhodamine B assay
K562 = test: Growth inhibition of human K562 cells incubated for 48 hrs by sulforhodamine B assay; conditions: K562, 48 h
OVCAR-3 = test: Growth inhibition of human OVCAR3 cells incubated for 48 hrs by sulforhodamine B assay; conditions: OVCAR-3, 48 h
MDA-MB-231 = test: Growth inhibition of human MDA-MB-231 cells incubated for 48 hrs by sulforhodamine B assay; conditions: MDA-MB-231, 48 h
DU-145 = test: Growth inhibition of human DU145 cells incubated for 48 hrs by sulforhodamine B assay; conditions: DU-145, 48 h
SK-MEL-5 = test: Growth inhibition of human SK-MEL-5 cells incubated for 48 hrs by sulforhodamine B assay; conditions: SK-MEL-5, 48 h
UO-31 = test: Growth inhibition of human UO31 cells incubated for 48 hrs by sulforhodamine B assay; conditions: UO-31, 48 h
HOP-62 = test: Growth inhibition of human HOP62 cells incubated for 48 hrs by sulforhodamine B assay; conditions: HOP-62, 48 h
SF-295 = test: Growth inhibition of human SF295 cells incubated for 48 hrs by sulforhodamine B assay; conditions: SF-295, 48 h
BT-549 = test: Growth inhibition of human BT549 cells incubated for 48 hrs by sulforhodamine B assay; conditions: BT-549, 48 h
UACC-257 = test: Growth inhibition of human UACC257 cells incubated for 48 hrs by sulforhodamine B assay; conditions: UACC-257, 48 h
NCI/ADR-RES = test: Growth inhibition of human NCI/ADR-RES cells incubated for 48 hrs by sulforhodamine B assay
PC-3 = test: Growth inhibition of human PC3 cells incubated for 48 hrs by sulforhodamine B assay; conditions: PC-3, 48 h
A549 = test: Growth inhibition of human A549/ATCC cells incubated for 48 hrs by sulforhodamine B assay; conditions: A549, 48 h
IGROV-1 = test: Growth inhibition of human IGROV1 cells incubated for 48 hrs by sulforhodamine B assay; conditions: IGROV-1, 48 h
SNB-75 = test: Growth inhibition of human SNB75 cells incubated for 48 hrs by sulforhodamine B assay; conditions: SNB-75, 48 h
ACHN = test: Growth inhibition of human ACHN cells incubated for 48 hrs by sulforhodamine B assay
[1] = read-out: LC50 (the source's name)

COc1cc2cc(Oc3ccc(NC(=O)Nc4ccc(Cl)c(C(F)(F)F)c4)cc3)c(C)nc2cc1OC
GI50 (SF-539): 1960 nM
TGI (SF-539): 8.39 µM
CC50 (SF-539; [1]): > 32.5 µM
GI50 (HCT-15): 1150 nM
LC50 (lethal concentration, 50% net cell kill) (HCT-15): 16.9 µM
TGI (HCT-15): 4.86 µM
GI50 (OVCAR-4): 1370 nM
TGI (OVCAR-4): 6.1 µM
CC50 (OVCAR-4; [1]): 23.5 µM
GI50 (SK-MEL-2): 799 to 800 nM
TGI (SK-MEL-2): 1940 nM
CC50 (SK-MEL-2; [1]): 11 µM
GI50 (A498): 754 nM
TGI (A498): 3.32 µM
CC50 (A498; [1]): 10.7 µM
GI50 (SNB-19): 1410 nM
TGI (SNB-19): 5.31 µM
CC50 (SNB-19; [1]): 15 µM
GI50 (CAKI-1): 782 nM
TGI (CAKI-1): 2540 nM
CC50 (CAKI-1; [1]): 25.2 µM
GI50 (786-0): 1170 nM
TGI (786-0): 4.97 µM
CC50 (786-0; [1]): 18.8 µM
GI50 (SK-MEL-28): 1410 nM
TGI (SK-MEL-28): 5.45 µM
CC50 (SK-MEL-28; [1]): 14.4 µM
GI50 (SN12C): 1310 nM
TGI (SN12C): 6.12 µM
CC50 (SN12C; [1]): 26.8 µM
GI50 (Malme-3M): 1330 nM
TGI (Malme-3M): 5.71 µM
CC50 (Malme-3M; [1]): > 32.5 µM
GI50 (T47D): 1210 nM
TGI (T47D): 7.9 µM
CC50 (T47D; [1]): > 32.5 µM
GI50 (MDA-MB-435): 1030 nM
TGI (MDA-MB-435): 4.71 µM
CC50 (MDA-MB-435; [1]): > 32.5 µM
GI50 (OVCAR-8): 1040 nM
TGI (OVCAR-8): 4.55 µM
CC50 (OVCAR-8; [1]): > 32.5 µM
GI50 (NCI-H23): 991 nM
TGI (NCI-H23): 3.79 µM
CC50 (NCI-H23; [1]): 15.8 µM
GI50 (LOX IMVI): 1220 nM
TGI (LOX IMVI): 4.16 µM
CC50 (LOX IMVI; [1]): 11.6 µM
GI50 (K562): 1110 nM
LC50 (concentration killing 50% of cells) (K562): 23.6 µM
TGI (K562): 4.81 µM
GI50 (OVCAR-3): 1160 nM
TGI (OVCAR-3): 4.45 µM
CC50 (OVCAR-3; [1]): 14 µM
GI50 (MDA-MB-231): 681 nM
TGI (MDA-MB-231): 1840 nM
CC50 (MDA-MB-231; [1]): 9.6 µM
GI50 (DU-145): 1240 nM
TGI (DU-145): 5.11 µM
CC50 (DU-145; [1]): 19.1 µM
GI50 (SK-MEL-5): 793 nM
TGI (SK-MEL-5): 2170 nM
CC50 (SK-MEL-5; [1]): 8.01 µM
GI50 (UO-31): 924 nM
TGI (UO-31): 2380 nM
CC50 (UO-31; [1]): 13.4 µM
GI50 (HOP-62): 1300 nM
TGI (HOP-62): 5.32 µM
CC50 (HOP-62; [1]): 13.7 µM
GI50 (SF-295): 899 to 900 nM
TGI (SF-295): 2910 nM
CC50 (SF-295; [1]): 22.2 µM
GI50 (BT-549): 981 nM
TGI (BT-549): 4.59 µM
CC50 (BT-549; [1]): 20.5 µM
GI50 (UACC-257): 710 nM
TGI (UACC-257): 2360 nM
CC50 (UACC-257; [1]): 19.6 µM
GI50 (NCI/ADR-RES): 1060 nM
TGI (NCI/ADR-RES): 4.91 µM
CC50 (NCI/ADR-RES; [1]): > 32.5 µM
GI50 (PC-3): 781 nM
TGI (PC-3): 2960 nM
CC50 (PC-3; [1]): > 32.5 µM
GI50 (A549): 1000 nM
TGI (A549): 4.16 µM
CC50 (A549; [1]): 15.1 µM
GI50 (IGROV-1): 2340 nM
TGI (IGROV-1): 9.83 µM
CC50 (IGROV-1; [1]): > 32.5 µM
GI50 (SNB-75): 1030 nM
TGI (SNB-75): 4.9 µM
CC50 (SNB-75; [1]): > 32.5 µM
GI50 (ACHN): 1070 nM
TGI (ACHN): 4 µM
CC50 (ACHN; [1]): 13.7 µM
